The text below walks through data of article PMC5309800, “Natural amines inhibit activation of human plasmacytoid dendritic cells through CXCR4 engagement” (Nature Communications, 2017).

Broadly, the Ki is the dissociation constant of the complex between target and ligand, obtained from inhibition or displacement. Low values mean higher affinity, high ones lower affinity.

SMILES strings stand for the structures.

Experiment [1] has as its target T1, CXC chemokine receptor 4 (CXCR4) (Homo sapiens, UniProt P61073). Put plainly: Tag-lite TR-FRET competition with CXCL12-red on HALO-CXCR4 cells; also inhibits […]5 antibody binding on Jurkat cells. The experiment is classed as cell-based. A general note: TR-FRET usually uses a lanthanide donor and a delayed reading to cut background.
Experiment [2] addresses T1, CXC chemokine receptor 4 (CXCR4). Put plainly: cell-based.

T1 sequence (P61073 whole entry): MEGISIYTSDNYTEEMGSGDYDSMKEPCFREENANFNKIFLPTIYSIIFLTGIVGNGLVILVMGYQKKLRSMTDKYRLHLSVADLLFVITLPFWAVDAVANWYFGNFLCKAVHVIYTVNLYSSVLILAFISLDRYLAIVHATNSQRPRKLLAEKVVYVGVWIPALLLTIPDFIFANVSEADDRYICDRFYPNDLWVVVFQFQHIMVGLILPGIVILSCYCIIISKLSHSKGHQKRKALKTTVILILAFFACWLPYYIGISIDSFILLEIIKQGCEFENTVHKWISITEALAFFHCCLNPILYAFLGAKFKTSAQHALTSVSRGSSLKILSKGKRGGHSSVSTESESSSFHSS

Compound `NC(=NCc1ccc(Cl)cc1)SCCCc1cnc[nH]1` [CB, clobenpropit] displayed a Ki in experiment [1] of 1.5 µM.
`NCCc1c[nH]cn1` [HA, histamine]: in experiment [2], the Ki is roughly 26.5 µM.
